From patent publication US7112584B2, “Nonsteroidal antiinflammatory agents” (Schering AG, priority 2002, dated 2006)
Where two headings read alike, the source gives them in different places. Values belong to the molecule of their own block, whether it stands above or below them.

What was measured:
[1] = biological target: T1, human GR (Homo sapiens, UniProt P04150); experiment: glucocorticoid receptor (GR) binding test, cytosol of Sf9 cells, [3H]-dexamethasone; settings: human GR from Sf9 cytosol
T1 construct: made in house; host or cells: Sf9 cells infected with recombinant baculovirus (cytosol preparation)
T1 sequence (P04150 1-777): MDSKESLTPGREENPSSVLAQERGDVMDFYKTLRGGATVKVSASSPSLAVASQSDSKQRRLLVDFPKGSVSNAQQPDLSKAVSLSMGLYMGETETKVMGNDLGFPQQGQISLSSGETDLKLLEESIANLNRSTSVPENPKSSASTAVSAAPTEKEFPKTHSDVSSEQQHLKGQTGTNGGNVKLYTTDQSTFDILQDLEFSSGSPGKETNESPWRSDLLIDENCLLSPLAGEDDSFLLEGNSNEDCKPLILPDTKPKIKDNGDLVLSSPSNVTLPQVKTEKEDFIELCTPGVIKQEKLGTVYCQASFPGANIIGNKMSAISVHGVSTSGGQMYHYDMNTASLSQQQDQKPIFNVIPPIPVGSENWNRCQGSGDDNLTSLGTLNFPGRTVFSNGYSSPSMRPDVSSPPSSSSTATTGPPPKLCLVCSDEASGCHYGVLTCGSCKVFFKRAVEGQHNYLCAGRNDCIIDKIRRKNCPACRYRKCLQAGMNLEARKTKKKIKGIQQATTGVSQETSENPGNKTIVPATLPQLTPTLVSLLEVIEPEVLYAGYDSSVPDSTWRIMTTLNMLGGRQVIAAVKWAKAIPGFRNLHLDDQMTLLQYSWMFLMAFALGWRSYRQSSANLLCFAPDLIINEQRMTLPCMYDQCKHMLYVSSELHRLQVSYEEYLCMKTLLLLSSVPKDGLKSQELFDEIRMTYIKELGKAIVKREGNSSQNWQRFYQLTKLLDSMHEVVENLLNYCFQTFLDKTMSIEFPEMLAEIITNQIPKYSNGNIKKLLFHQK
Source text: The binding of substances to the glucocorticoid receptor (GR) is examined with the aid of a recombinantly produced receptor. Cytosol preparations of Sf9 cells, which had been infected with recombinant baculoviruses, which code for the GR, are used for the binding studies.

[2] = system: secretion of cytokine IL-8 in human monocyte cell line THP-1; experiment: inhibition of LPS-triggered IL-8 secretion in THP-1 cells (ELISA); assay type: cell-based; design: Inhibition of IL-8 Secretion Efficacy: concentration or dose not given beside the values; settings: THP-1, LPS-triggered
Description: The concentration of the cytokines was determined in the supernatant with use of commercially available ELISA kits.
The potency of the inflammation inhibition is determined by the inhibition of the secretion of cytokine IL-8 in a cellular test. […] The concentration of the cytokine was determined in the supernatant by commercially available ELISA kits. In this connection, the compounds of formula I show a high to very high potency and action (>50%) in the inhibition (see Table 4). The potency of the racemates is considerably lower than that of the pure enantiomers.

[3] = biological target: T2, GR (collagenase promoter) (Homo sapiens, UniProt P04150); experiment: reporter gene test in HeLa cells, transrepression, collagenase promoter-luciferase; assay type: cell-based; settings: TPA-induced; for IC50: read-out: Transrepression (TR)(Collagenase Promoter) IC50
T2 construct: endogenous in cells; host or cells: HeLa cells stably transfected with promoter-luciferase reporters (MMTV, IL-6 or collagenase promoter)
T2 sequence (P04150 1-777): T1 sequence (P04150 1-777)

[4] = system: tyrosinamino transferase (TAT); experiment: induction of tyrosinamino transferase (TAT) in liver homogenates; assay type: in vivo; settings: mice, 8 hours after administration, vs untreated control
Source text: One of the most frequent undesirable effects of a glucocorticoid therapy is the so-called “steroid diabetes” [cf. Hatz, H. J., Glucocorticoide: Immunologische Grundlagen, Pharmakologie und Therapierichtlinien [Glucocorticoids: Immunological Bases, Pharmacology and Therapy Guidelines], Wissenschaftliche Verlagsgesellschaft mbH, Stuttgart, 1998]. The reason for this is the stimulation of the gluconeogenesis in the liver by induction of the enzymes that are responsible for this effect and by free amino acids, which develop from the degradation of proteins (catabolic action of glucocorticoids). A key enzyme of the catabolic metabolism in the liver is the tyrosinamino transferase (TAT). The activity of this enzyme can be determined photometrically from liver homogenates and represents a good yardstick of the undesirable metabolic actions of the glucocorticoids. To measure the TAT induction, the animals are sacrificed 8 hours after the test substances are administered, the livers are removed, and the TAT activity in the homogenate is measured.
As parameters for the side effects of the catabolic metabolism induced by steroids, the activity of the enzyme tyrosinamino transferase (TAT) was determined by photometry from liver homogenates. The activity represents a good yardstick for the undesirable catabolic actions of the glucocorticoids. To measure the TAT induction, the animals (mice and rats) are killed 8 hours after the test substance is administered, the liver is removed, and the TAT activity is measured in the homogenates.

[5] = biological target: T3, GR (IL-6 promoter) (Homo sapiens, UniProt P04150); experiment: reporter gene test in HeLa cells, transrepression, IL-6 promoter-luciferase; settings: for Emax: HeLa, read-out: Transrepression (TR)(IL-6-Promoter) Efficacy
T3 sequence (P04150 1-777): T1 sequence (P04150 1-777)
Description: (§1) The MMTV promoter (transactivation) and the IL-6 promoter (transrepression) in each case were upstream to the gene that codes for the luciferase. By means of the photometric determination of the enzyme activity of the luciferase, it was possible to measure the activation of the transcription (MMTV-promoter-construct) or the inhibition of the transcription (IL-6-promoter-construct) by the GR.
(§2) This dissociation of the mechanisms of action was determined with the aid of the reporter gene test in stable transfixed human HeLa cells. To determine the transactivation induced by the GR, the MMTV promoter, which is set before a luciferase gene, is used. Via the photometric determination of the luciferase activity, it was possible to determine the transactivation activities of the GR after binding the test compounds. The inhibition of the transcription of the luciferase gene, induced by tetradecanoyl-phorbol acetate (TPA) under the control of the IL-6 promoter or the collagenase promoter (transpression) by the GR after binding the test substances, was also determined by the measurement of luciferase activity in HeLa cells.

[6] = biological target: T4, GR (MMTV promoter) (Homo sapiens, UniProt P04150); experiment: reporter gene test in HeLa cells, transactivation, MMTV promoter-luciferase; settings: for TA:TR EC50:IC50: MMTV promoter EC50 : IL-6 promoter IC50
T4 sequence (P04150 1-777): T1 sequence (P04150 1-777)
Description: as §1, §2

[7] = system: croton oil-induced inflammation; experiment: croton oil-induced ear inflammation, edema formation in mice; assay type: in vivo; settings: systemic, two hours before croton oil, ear weight
Description: The antiinflammatory actions of the compounds of general formula I were tested in the animal experiment by tests in the croton oil-induced inflammation in rats and mice (J. Exp. Med. (1995), 182, 99–108). In this connection, croton oil in ethanolic solution was administered topically to the animals' ears. The test substances were also administered topically or systemically simultaneously with or two hours before the croton oil. After 16–24 hours, the ear weight was measured as a yardstick of the inflammatory edema, the peroxidase activity was measured as a yardstick of the invasions of granuloctyes, and the elastase activity was measured as a yardstick of the invasion of neutrophilic granuloctyes.
The antiinflammatory action of the compounds of general formula I were tested in an animal experiment in croton oil-induced inflammation in mice and in rats (J. Exp. Med. (1995), 182, 99–108). In this connection, croton oil in ethanolic solution was administered topically to the animals' ears. The test substances were systemically administered for two hours before the croton oil. After 16–24 hours, the ear weight was measured as a yardstick for the inflammatory edema.

[8] = HeLa cells, TPA-induced, luciferase
[9] = read-out: Transrepression (TR)(IL-6-Promoter) IC50, HeLa cells, TPA-induced, luciferase
[10] = read-out: Transactivating (TA)(MMTV-Promoter) EC50, HeLa cells, luciferase

Molecule: Cc1noc(=O)c2ccc(NC(=O)C(O)(CC(C)(C)c3cccc4ccoc34)C(F)(F)F)cc12 (single isomer, unassigned) [Example 23]
Transrepression (TR)(Collagenase Promoter) Efficacy [3]: 78%
IC50 [3]: 4.9 nM
Induction Factor for TAT with 3 mg/kg [4]: 1.1
Induction Factor for TAT with 30 mg/kg [4]: 1.0
Transrepression (TR)(IL-6-Promoter) Efficacy [5, 8]: 78%
IC50 [5, 9]: 1.6 nM
Transactivating (TA)(MMTV-Promoter) Efficacy ([6]; HeLa cells, luciferase): 76%
TA:TR EC50:IC50 [6]: 6.2
EC50 [6, 10]: 10 nM

Molecule: (+)-6-[3-(Benzo[1,3]dioxol-4-yl)-cyclobutyl-2-hydroxy-2-trifluoromethyl-propionyl-amino]-4-methyl-2,3-benzoxazin-1-one [Example 6]
Transrepression (TR)(Collagenase Promoter) Efficacy [3]: 95%
IC50 [3]: 2.6 nM
Transrepression (TR)(IL-6-Promoter) Efficacy [5, 8]: 77%
IC50 [5, 9]: 1.2 nM

Molecule: Cc1noc(=O)c2ccc(NC(=O)C(O)(CC3(c4cccc5c4OCO5)CC3)C(F)(F)F)cc12 (single isomer, unassigned; (+)) [Example 4]
IC50 [2]: 29 nM
Inhibition of IL-8 Secretion Efficacy [2]: 62%
Transrepression (TR)(IL-6-Promoter) Efficacy [5, 8]: 80%
IC50 [5, 9]: 1.5 nM

Molecule: Cc1noc(=O)c2ccc(NC(=O)C(O)(CC3(c4cccc5c4OCC5)CCC3)C(F)(F)F)cc12 (racemic) [Example 14]
IC50 [2]: 71 nM
Inhibition of IL-8 Secretion Efficacy [2]: 61%
Transrepression (TR)(IL-6-Promoter) Efficacy [5, 8]: 85%
IC50 [5, 9]: 4.2 nM

Molecule: Cc1noc(=O)c2ccc(NC(=O)C(O)(CC(C)(C)c3cccc4c3OCO4)C(F)(F)F)cc12 (racemic) [Example 1, (±)-6-[4-(Benzo[1,3]dioxol-4-yl)-2-hydroxy-4-methyl-2-trifluoromethyl-valeroyl-amino]-4-methyl-2,3-benzoxazin-1-one]
IC50 [1]: 1.5 nM
IC50 ([2]; Homo sapiens): 76 nM
Inhibition of IL-8 Secretion Efficacy [2]: 51%
IC50 [5]: 2 nM
Emax [5]: 84%

Molecule: Cc1noc(=O)c2ccc(NC(=O)C(O)(CC3(c4cccc5c4OCO5)CC3)C(F)(F)F)cc12 (racemic) [Example 3]
IC50 ([2]; Homo sapiens): 39 nM
Inhibition of IL-8 Secretion Efficacy [2]: 53%
IC50 [5]: 5.9 nM
Emax [5]: 66%

Molecule: Cc1noc(=O)c2ccc(NC(=O)C(O)(CC3(c4cccc5c4OCC5)CCC3)C(F)(F)F)cc12 (single isomer, unassigned) [Example 15]
IC50 [2]: 7.5 nM
Inhibition of IL-8 Secretion Efficacy [2]: 74%
Transrepression (TR)(IL-6-Promoter) Efficacy [5, 8]: 74%
IC50 [5, 9]: 1.5 nM

Molecule: CCc1noc(=O)c2ccc(NC(=O)C(O)(CC3(c4cccc5c4OCC5)CCC3)C(F)(F)F)cc12 (single isomer, unassigned) [Example 17]
Transrepression (TR)(IL-6-Promoter) Efficacy [5, 8]: 73%
IC50 [5, 9]: 4.6 nM
Transactivating (TA)(MMTV-Promoter) Efficacy ([6]; HeLa cells, luciferase): 50%
TA:TR EC50:IC50 [6]: 8.7
EC50 [6, 10]: 40 nM

Molecule: C[C@@H]1C[C@H]2[C@@H]3CCC4=CC(=O)C=C[C@]4(C)[C@@]3(F)[C@@H](O)C[C@]2(C)[C@@]1(O)C(=O)CO [Dexamethasone, reference compound]
Transrepression (TR)(Collagenase Promoter) Efficacy [3]: 100%
Transrepression (TR)(IL-6-Promoter) Efficacy [5, 8]: 100%
Transactivating (TA)(MMTV-Promoter) Efficacy ([6]; HeLa cells, luciferase): 100%

Further lines, with some results ahead:

IC50 [1]: 0.85 nM
IC50 ([2]; Homo sapiens): 42 nM
Molecule: Cc1noc(=O)c2ccc(NC(=O)C(O)(CC3(c4cccc5c4OCC5)CC3)C(F)(F)F)cc12 (racemic) [Example 12]
Inhibition of IL-8 Secretion Efficacy [2]: 52%

IC50 ([2]; Homo sapiens): 18 nM
Transrepression (TR)(Collagenase Promoter) Efficacy [3]: 96%
Induction Factor for TAT with 3 mg/kg [4]: 2.6
Induction Factor for TAT with 30 mg/kg [4]: 8.0
Emax [5]: 94%
Molecule: C[C@]12C=CC(=O)C=C1CC[C@@H]1[C@@H]2[C@@H](O)C[C@@]2(C)[C@H]1CC[C@]2(O)C(=O)CO [Prednisolone, reference compound]
Inhibition of IL-8 Secretion Efficacy [2]: 92%
Edema Inhibition with 3 mg/kg [7]: 35%
Edema Inhibition with 30 mg/kg [7]: 84%

IC50 [5]: 2.2 nM
Emax [5]: 80%
EC50 [6]: 49 nM
Transactivating (TA)(MMTV-Promoter) Efficacy ([6]; HeLa cells, luciferase): 76%
TA:TR EC50:IC50 [6]: 22.3
Molecule: Cc1noc(=O)c2ccc(NC(=O)C(O)(CC3(c4cccc(F)c4O)CCC3)C(F)(F)F)cc12 (single isomer, unassigned) [Example 33]

IC50 [5]: 2.8 nM
Emax [5]: 67%
EC50 [6]: 50 nM
Transactivating (TA)(MMTV-Promoter) Efficacy ([6]; HeLa cells, luciferase): 25%
TA:TR EC50:IC50 [6]: 17.8
Molecule: CCc1noc(=O)c2ccc(NC(=O)C(O)(CC(C)(C)c3cccc4ccoc34)C(F)(F)F)cc12 (single isomer, unassigned; (+)) [Example 8, (+)-4-Ethyl-6-[4-(7-benzofuranyl)-2-hydroxy-4-methyl-2-trifluoromethylvaleroylamino]-2,3-benzoxazin-1-one]
Edema Inhibition with 3 mg/kg [7]: 33%
Edema Inhibition with 30 mg/kg [7]: 52%

IC50 [5]: 3.8 nM
Emax [5]: 91%
Molecule: Cc1noc(=O)c2ccc(NC(=O)C(O)(CC(C)(C)c3cc(F)cc4c3OCO4)C(F)(F)F)cc12 (single isomer, unassigned) [Example 19]

Induction Factor for TAT with 3 mg/kg [4]: 1.2
Induction Factor for TAT with 30 mg/kg [4]: 2.4
Molecule: Cc1noc(=O)c2ccc(NC(=O)C(O)(CC(C)(C)c3cc(Br)ccc3O)C(F)(F)F)cc12 (single isomer, unassigned; (+)) [Example 7, (+)-6-[4-(5-Bromo-2-hydroxyphenyl)-2-hydroxy-4-methyl-2-(trifluoromethyl)valeroylamino]-4-methyl-2,3-benzoxazin-1-one]
Edema Inhibition with 3 mg/kg [7]: 22%
Edema Inhibition with 30 mg/kg [7]: 75%

IC50 [1]: 3 nM
IC50 [5]: 2.2 nM
Emax [5]: 76%
Molecule: COc1c(F)cccc1C1(CC(O)(C(=O)Nc2ccc3c(=O)onc(C)c3c2)C(F)(F)F)CCC1 (single isomer, unassigned) [Example 32]

IC50 [1]: 14 nM
IC50 [5]: 5.4 nM
Emax [5]: 67%
Molecule: COc1c(F)cccc1C1(CC(O)(C(=O)Nc2ccc3c(=O)onc(C)c3c2)C(F)(F)F)CCC1 (racemic) [Example 31]
